Test results as given in patent US5230802A, “Extraction process using a novel organic acid as a liquid ion exchanger” (Philip Morris Incorporated, priority 1992, dated 1993).
Values joined by “and” are separate entries in the source; they are usually repeats but may differ in a detail not shown here. Equal entries are not always repeated. Where two headings read alike, the source gives them in different places.

How the values were obtained:
[1] = Organic phase/aqueous phase partition coefficient of nicotine in presence of LIX (Table I); type: physicochemical; details: in words; for solubility of the nicotine-LIX complex: water versus hexane
Excerpt: As hereinbefore disclosed, two different experimental criteria can be used to measure the capability of a LIX. First, the organic phase/water phase partition coefficient (PC) can be determined. The partition coefficient, as used herein, can be defined as the ratio of the amount of a substance dissolved in one phase in relation to the amount of the substance dissolved in the second phase. Accordingly, in determining the partition coefficient in the solvent extraction of nicotine from a tobacco processing fluid to another, the ratio would be the concentration of nicotine in the organic (extraction) phase divided by the concentration of nicotine in the aqueous (process) phase. If the partition coefficient increases, i.e., more of the nicotine is soluble in the organic phase, in the presence of a LIX, then this LIX meets one of the objectives for a successful nicotine transfer agent.
Table I is a presentation of the partition coefficients of various liquid ion exchangers, including control experiments where no LIX are utilized. […] Capabilities of the LIX as well as the components of the various phases must all be considered.

[2] = 180 min; 5% LIX, 20 mM nicotine, 4 L FS; ND = None detected
Excerpt: (§1) The apparatus used is a Model MSX-750 laboratory unit purchased from Sepracor, Inc., Marlborough, Mass.; it is a 3-panel, 3-loop, 2-membrane operation. As shown in the Figure, each panel has a solvent circulation pump (1), pressure gauge, flow rotometer, and multiple valves for control of the solvent input and output (not shown). A separate pump controller (not shown) provides variable speed and on/off controls for all three panels. Analysis ports are built into the unit to allow pH readings at the feedstock (2)- and recovery panels (3)- and automatic pH titration at the recovery solution panel. Sample aliquots can be removed from all three system solvents in line (4)- or from the reservoirs (5). The membrane modules (6) contain a hollow fiber bundle in a plastic cartridge with connectors to allow flow through the hollow fibers (lumen) with one solvent and simultaneous flow around the fibers (shell) with an "exchanging" solvent (not shown). The membrane fibers used were either regenerated cellulose (RC) or polyacrylonitrile (PAN) and were 0.5-1.5 square meters in surface area.
For this membrane separation process, solutions are recirculated at 100-900 ml/min. The feedstock reservoir volume is between 0.5 L and 8.0 L of aqueous solution which is 0.1-10.0% dissolved base, e.g., pyridine or nicotine, at a pH between 4 and 10. […]

[3] = 2% LIX in Isopar K, 1.5 m2 PAN
Excerpt: as §1
For this membrane separation process, solutions are recirculated at 100-900 ml/min. The feedstock reservoir volume is between 0.5 L and 8.0 L of aqueous solution which is 0.1-10.0% dissolved base, e.g., pyridine or nicotine, at a pH between 4 and 10. The feedstock solution can also contain other compounds, e.g., tobacco components. The organic solvent (OS) reservoir contains from 300-1000 mL of a water-immiscible solvent like hexane, heptane, octane, nonane, decane or Isopar K (Exxon) to which is added 0.1-10.0% of LIX. The OS is recirculated in the center panel through the lumen of both membrane modules and is always kept at 2-10 psi higher than the aqueous phases to maintain phase separation. The aqueous recovery solution is maintained at a constant pH (1.0-4.0) via an automatic titration unit (Metrohm Model 665 Dosimat with Model 614 Impulsomat and Model 632 Digital-pH-Meter, Metrohm Ltd., CH-9100 Herisau, Switzerland) using 1.0 M sulfuric acid to provide a pH differential and as a collection sink for the base being transferred, e.g., pyridine or nicotine.
Seven consecutive runs were performed with the apparatus outlined in Example XII without the use of a LIX in the OS, changing to a fresh 1 liter 0.32% nicotine FS each run and leaving the RS alone to concentrate the nicotine recovered (Section A). Prior to run 8, fresh FS, OS and RS solutions were placed within the system. For the five consecutive runs 8-12, 2% LIX (Example X) in Isopar K was used as the OS, 0.32% nicotine in deionized water for FS (one liter fresh for each run), and a fresh deionized water RS was left in place for all five runs to concentrate the nicotine (Section B). The volume of the RS increased during the runs 8-12 because the nicotine was transferred into it and because acid solution was pumped into it to maintain a pH of ca. 3. Then three additional runs 13-15 were made using the same OS and the same RS (to form a more concentrated nicotine solution) from Section B; 4 L FS solutions of 0.32% nicotine in deionized water (a fresh solution each run) were used (Section C). […] The OS continues to operate without replacement.

SMILES | partition coefficient compared with no LIX present [1] | solubility of the nicotine-LIX complex [1] | Percent (%) remaining in FS [2] | Percent (%) nicotine remaining in FS ([3]; Section B, 0 min, 1 liter FS at 0.32% nicotine) | Percent (%) nicotine remaining in FS ([3]; Section B, 15 min, 1 liter FS at 0.32% nicotine) | Percent (%) nicotine remaining in FS ([3]; Section B, 30 min, 1 liter FS at 0.32% nicotine) | Percent (%) nicotine remaining in FS ([3]; Section B, 45 min, 1 liter FS at 0.32% nicotine) | Percent (%) nicotine remaining in FS ([3]; Section B, 60 min, 1 liter FS at 0.32% nicotine) | Percent (%) nicotine remaining in FS ([3]; Section C, 0 min, 4 liters FS at 0.32% nicotine) | Percent (%) nicotine remaining in FS ([3]; Section C, 60 min, 4 liters FS at 0.32% nicotine) | Percent (%) nicotine remaining in FS ([3]; Section C, 120 min, 4 liters FS at 0.32% nicotine) | Percent (%) nicotine remaining in FS ([3]; Section C, 180 min, 4 liters FS at 0.32% nicotine) | Percent (%) nicotine remaining in FS ([3]; Section C, 240 min, 4 liters FS at 0.32% nicotine)
CCCCC(CC)COC(=O)[C@H](OC(C)=O)[C@@H](OC(C)=O)C(=O)O (mixture of isomers) [Example III, (2R, 3R, 2'R)- and (2R, 3R, 2'S)-Mono(2'-Ethylhexyl) 2,3-Bis(acetyloxy)butanedioate] | less than without any LIX present | more water soluble than hexane soluble |  |  |  |  |  |  |  |  |  |  | 
CCCCC(CC)COC(=O)[C@H](OC(=O)CC)[C@@H](OC(=O)CC)C(=O)O (mixture of isomers) [Example V, (2R, 3R, 2'R)- and (2R, 3R, 2'S)-Mono(2'-Ethylhexyl) 2,3-Bis(propionyloxy)butanedioate] | less than without any LIX present | more water soluble than hexane soluble |  |  |  |  |  |  |  |  |  |  | 
CCCCC(CC)COC(=O)[C@H](OC(=O)C(CC)CCCC)[C@@H](OC(=O)C(CC)CCCC)C(=O)O (stereo partly drawn) [Example X, (2R, 3R, 2'.xi., 2''.xi., 2'''.xi.)-Mono(2'-Ethylhexyl) 2,3-Bis(2-ethylhexanoyloxy)butanedioate] |  |  | 10.0% | 100% | 49% and 50% | 37% and 36% and 35% | 23% and 24% | 14% and 13% | 100% | 51% | 35% and 37% | 21% and 23% | 13%
